Experimental data reported in patent US7842672B2, “Phosphonate inhibitors of HCV” (Gilead Sciences, Inc., priority 2006, dated 2010).

What was measured:
[1] = system: HCV replicon cells (Huh7); assay: HCV replicon assay (HCV EC50 determination, luciferase readout); type: cell-based; conditions: for inhibition at 250 µM: Concentration tested 250 micromolar
Experimental: Replicon cells were seeded in 96-well plates at a density of 8×10^3 cells per well in 100 μL of culture medium, excluding Geneticin. Compound was serially diluted in 100% DMSO and then added to the cells at a 1:200 dilution, achieving a final concentration of 0.5% DMSO and a total volume of 200 μL. Plates were incubated at 37° C. for 3 days, after which culture medium was removed and cells were lysed in lysis buffer provided by Promega's luciferase assay system. Following the manufacturer's instruction, 100 μL of luciferase substrate was added to the lysed cells and luciferase activity was measured in a TopCount luminometer.

HCV NS5b polymerase = HCV NS5b polymerase (Hepatitis C virus genotype 1b, UniProt Q9WMX2); assay: NS5b polymerase assay (HCV IC50 determination); type: biochemical; conditions: Concentration tested 200 micromolar
Experimental: Assay Protocol: NS5b polymerase assay (40 μL) was assembled by adding 28 μL polymerase mixture (final concentration: 50 mM Tris-HCl at pH 7.5, 10 mM KCL, 5 mM MgCl2, 1 mM DTT, 10 mM EDTA, 4 ng/μL of RNA template, and 75 nM HCV ? 21 NS5b polymerase) to assay plates followed by 4 μL of compound dilution. The polymerase and compound were pre-incubated at 35° C. for 10 minute before the addition of 8 μL of nucleotide substrate mixture (33P- ? -labeled competing nucleotide at KM and 0.5 mM of the remaining three nucleotides). The assay plates were covered and incubated at 35° C. for 90 min. Reactions were then filtered through 96-well DEAE-81 filter plates via vacuum. The filter plates were then washed under vacuum with multiple volumes of 0.125 M NaHPO4, water, and ethanol to remove unincorporated label. Plates were then counted on TopCount to assess the level of product synthesis over background controls. The IC50 value was determined using Prism fitting program.

Compound	inhibition at 250 µM ([1]; Hepatitis C virus, Huh-7) [%]	other results
Nc1nc2c(ncn2C2OC(OCP(=O)(O)O)CC2O)c(=O)[nH]1 (stereo not drawn) [Compound 5.2, [5-(2-Amino-6-oxo-1,6-dihydro-purin-9-yl)-4-hydroxy-tetrahydro-furan-2-yloxymethyl]-phosphonic acid]	27.2	
NC(=O)c1ncn(C2OC(OCP(=O)(O)O)CC2O)n1 (stereo not drawn) [Compound 8.3, [5-(3-Carbamoyl-[1,2,4]triazol-1-yl)-4-hydroxy-tetrahydro-furan-2-yloxymethyl]-phosphonic acid]	18.5	
NC(=O)c1ncn([C@@H]2O[C@H](OCP(=O)(O)OP(=O)(O)OP(=O)(O)O)C[C@H]2O)n1 [Compound 9.4, Diphosphate of [5-(3-Carbamoyl-[1,2,4]triazol-1-yl)-4-hydroxy-tetrahydro-furan-2-yloxymethyl]-phosphonic acid]		inhibition at 200 µM (HCV NS5b polymerase): 65.5%
CCCCOC(=O)[C@H](C)NP(=O)(CO[C@@H]1C[C@@H](O)[C@H](n2cnc(C(N)=O)n2)O1)N[C@@H](C)C(=O)OCCCC [Compound 9.5, Bis (Alanine-n-butyl ester) phosphonamidate pro drug of [5-(3-carbamoyl-[1,2,4]triazol-1-yl)-4-hydroxy-tetrahydro-furan-2-yloxymethyl]-phosphonic acid]		inhibition at 50 µM ([1]; Hepatitis C virus, Huh-7, Concentration tested 50 micromolar): 1.1%
C[C@]1(OCP(=O)(O)O)O[C@@H](n2ccc(=O)[nH]c2=O)[C@H](O)[C@@H]1O [Compound 32.4, ((2R,3S,4R,5R)-5-(2,4-dioxo-3,4-dihydropyrimidin-1(2H)-yl)-3,4-dihydroxy-2-methyl-tetrahydrofuran-2-yloxy)methylphosphonic acid]	14.8	
CCCCOC(=O)[C@H](C)NP(=O)(CO[C@H]1O[C@@H](n2ccc(N)cc2=O)[C@H](O)[C@@H]1O)N[C@@H](C)C(=O)OCCCC [Compound 32.5]		% Inhibition of replicon ([1]; Concentration tested 500 micromolar): 37.5%
